Measured values from patent publication US9453031B2, “Chemical entities” (Fundación Centro Nacional de Investigaciones Oncológicas …, priority 2013, dated 2016).

What was measured:
Eμmyc lymphoma cells = assay: In vivo efficacy, mice injected intravenously with Eμmyc lymphoma cells; settings: C57BL/6 mice
Procedure: The efficacy of compounds of the invention alone or in combination with chemotherapeutics agents were measured in vivo by implanting allografts or xenografts of cancer cells in rodents and treating the tumour-bearing animals with the compounds alone or in combination with chemotherapeutics agents.
Recipient mice were monitored for tumor formation by the presence of tumoral cells in the blood (LDH measurement), and twice a week by palpation of the pre-scapular and cervical lymph-nodes, once a week by sonography measurement of thoracic lymph-nodes size. […] Efficacy of the treatment was done evaluating the relative weight of all tumoral tissues (spleen, salivary lymph-nodes, mammary lymph-nodes, thymus and mesenteric lymph-nodes) versus body weight substrating the relative weight of same normal tissues. Bars represent standard error of the mean (n=8).

CYP 2C19 = CYP 2C19 (Homo sapiens (Human), UniProt P33261); assay: CYP inhibition assay (P450-Glo); assay type: in vitro ADME; settings: recombinant CYP
ATR [1] = target: T1, ATR (Homo sapiens (Human), UniProt Q13535); assay: Cellular ATR inhibition, pChk1 Ser345 after UV mimetic 4NQO; assay type: cell-based; settings: HT-29, read-out: UV mimetic inhibition of CHK1P at 10 μM (%); 10 μM compound, 3 μM 4NQO, HT29 cells
Text: (§1) ATM and ATR have distinct and overlapping responses to DNA damage. They must participate together and responses must be coordinated. Both pathways may be activated by ionizing radiation, and UV. As UV treatment is not practical for use in a high throughput cell assay, the UV mimetic 4NQO (Sigma) was chosen to activate the ATR and ATM DNA damage response pathway.
(§2) Chk1, a downstream protein kinase of ATR, has a key role in DNA damage checkpoint control, as well as Chk2 downstream of ATM. […] This assay measures a decrease in phosphorylation of Chk1 (Ser 345) and […] in HT29 colon adenocarcinoma cells following treatment with compound and the UV mimetic 4NQO. Compounds at 1 mM were created by diluting in 100% DMSO and then diluted 1:100 into assay media (RPMI, 10% FCS, 1% glutamine). Cells were plated in 6 well Costar plates at 5×10^5 cells per mL in 2 mL RPMI, 10% FCS, 1% glutamine and grown for 24 hrs. Following addition of compound the cells were incubated for 60 minutes. A final concentration of 3 μM 4NQO (prepared in 100% DMSO) was then added and the cells incubated for a further 60 mins. The cells are lysed and pChk1 Ser345 and pCHK2 Thr68 (Cell Signaling Technology, #2661) versus total CHK1 and CHK2 (Santa Cruz Biotechnology, se-5278) respectively has analysed by western blot as described above. The percentage of phosphorylated CHK1 versus total CHK1 or p-CHK2 versus total CHK2 in cells treated with 4NQO was taken as hundred percent of phosphorylation. The percentage of CHK1 or CHK2 phosphorylation is finally plotted against concentration for each compound and EC50s for intracellular ATR inhibition are calculated using ActivityBase from IDBS.

ATM = ATM (Homo sapiens (Human), UniProt Q13315); assay: Cellular ATM inhibition, pCHK2 Thr68 after UV mimetic 4NQO; assay type: cell-based; settings: HT-29, read-out: UV mimetic inhibition of CHK2P at 10 μM (%); 10 μM compound, 3 μM 4NQO, HT29 cells
Text: as §1, §2

CYP 2C9 = CYP 2C9 (Homo sapiens (Human), UniProt P11712); assay: CYP inhibition assay (P450-Glo); settings: read-out: P450-2C9 IC50; recombinant CYP
ATR [2] = target: T1, ATR; assay: Cellular ATR inhibition, western blot of CHK1(S345) phosphorylation in hydroxyurea treated cells; assay type: cell-based; settings: HT29 cells, hydroxyurea 2.5 mM
Summary of the method: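 HT29 cells exposed to compound (3-fold dilutions from 10 μM final) for 15 min, then 2.5 mM hydroxyurea for 30 min at 37 °C. Lysates blotted for pS345-CHK1 and total CHK1, infrared-imaged; ratio normalized to hydroxyurea-only cells as 100%, EC50 from concentration–response.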

CYP 1A2 = CYP 1A2 (Homo sapiens (Human), UniProt P05177); assay: CYP inhibition assay (P450-Glo); assay type: in vitro ADME; settings: recombinant CYP
CYP 3A4 = CYP 3A4 (Homo sapiens (Human), UniProt P08684); assay: CYP inhibition assay (P450-Glo); settings: read-out: P450-3A4 IC50; recombinant CYP
CYP 2D6 = CYP 2D6 (Homo sapiens (Human), UniProt P10635); assay: CYP inhibition assay (P450-Glo); assay type: in vitro ADME; settings: recombinant CYP

Chain of ATM (Q13315 whole entry): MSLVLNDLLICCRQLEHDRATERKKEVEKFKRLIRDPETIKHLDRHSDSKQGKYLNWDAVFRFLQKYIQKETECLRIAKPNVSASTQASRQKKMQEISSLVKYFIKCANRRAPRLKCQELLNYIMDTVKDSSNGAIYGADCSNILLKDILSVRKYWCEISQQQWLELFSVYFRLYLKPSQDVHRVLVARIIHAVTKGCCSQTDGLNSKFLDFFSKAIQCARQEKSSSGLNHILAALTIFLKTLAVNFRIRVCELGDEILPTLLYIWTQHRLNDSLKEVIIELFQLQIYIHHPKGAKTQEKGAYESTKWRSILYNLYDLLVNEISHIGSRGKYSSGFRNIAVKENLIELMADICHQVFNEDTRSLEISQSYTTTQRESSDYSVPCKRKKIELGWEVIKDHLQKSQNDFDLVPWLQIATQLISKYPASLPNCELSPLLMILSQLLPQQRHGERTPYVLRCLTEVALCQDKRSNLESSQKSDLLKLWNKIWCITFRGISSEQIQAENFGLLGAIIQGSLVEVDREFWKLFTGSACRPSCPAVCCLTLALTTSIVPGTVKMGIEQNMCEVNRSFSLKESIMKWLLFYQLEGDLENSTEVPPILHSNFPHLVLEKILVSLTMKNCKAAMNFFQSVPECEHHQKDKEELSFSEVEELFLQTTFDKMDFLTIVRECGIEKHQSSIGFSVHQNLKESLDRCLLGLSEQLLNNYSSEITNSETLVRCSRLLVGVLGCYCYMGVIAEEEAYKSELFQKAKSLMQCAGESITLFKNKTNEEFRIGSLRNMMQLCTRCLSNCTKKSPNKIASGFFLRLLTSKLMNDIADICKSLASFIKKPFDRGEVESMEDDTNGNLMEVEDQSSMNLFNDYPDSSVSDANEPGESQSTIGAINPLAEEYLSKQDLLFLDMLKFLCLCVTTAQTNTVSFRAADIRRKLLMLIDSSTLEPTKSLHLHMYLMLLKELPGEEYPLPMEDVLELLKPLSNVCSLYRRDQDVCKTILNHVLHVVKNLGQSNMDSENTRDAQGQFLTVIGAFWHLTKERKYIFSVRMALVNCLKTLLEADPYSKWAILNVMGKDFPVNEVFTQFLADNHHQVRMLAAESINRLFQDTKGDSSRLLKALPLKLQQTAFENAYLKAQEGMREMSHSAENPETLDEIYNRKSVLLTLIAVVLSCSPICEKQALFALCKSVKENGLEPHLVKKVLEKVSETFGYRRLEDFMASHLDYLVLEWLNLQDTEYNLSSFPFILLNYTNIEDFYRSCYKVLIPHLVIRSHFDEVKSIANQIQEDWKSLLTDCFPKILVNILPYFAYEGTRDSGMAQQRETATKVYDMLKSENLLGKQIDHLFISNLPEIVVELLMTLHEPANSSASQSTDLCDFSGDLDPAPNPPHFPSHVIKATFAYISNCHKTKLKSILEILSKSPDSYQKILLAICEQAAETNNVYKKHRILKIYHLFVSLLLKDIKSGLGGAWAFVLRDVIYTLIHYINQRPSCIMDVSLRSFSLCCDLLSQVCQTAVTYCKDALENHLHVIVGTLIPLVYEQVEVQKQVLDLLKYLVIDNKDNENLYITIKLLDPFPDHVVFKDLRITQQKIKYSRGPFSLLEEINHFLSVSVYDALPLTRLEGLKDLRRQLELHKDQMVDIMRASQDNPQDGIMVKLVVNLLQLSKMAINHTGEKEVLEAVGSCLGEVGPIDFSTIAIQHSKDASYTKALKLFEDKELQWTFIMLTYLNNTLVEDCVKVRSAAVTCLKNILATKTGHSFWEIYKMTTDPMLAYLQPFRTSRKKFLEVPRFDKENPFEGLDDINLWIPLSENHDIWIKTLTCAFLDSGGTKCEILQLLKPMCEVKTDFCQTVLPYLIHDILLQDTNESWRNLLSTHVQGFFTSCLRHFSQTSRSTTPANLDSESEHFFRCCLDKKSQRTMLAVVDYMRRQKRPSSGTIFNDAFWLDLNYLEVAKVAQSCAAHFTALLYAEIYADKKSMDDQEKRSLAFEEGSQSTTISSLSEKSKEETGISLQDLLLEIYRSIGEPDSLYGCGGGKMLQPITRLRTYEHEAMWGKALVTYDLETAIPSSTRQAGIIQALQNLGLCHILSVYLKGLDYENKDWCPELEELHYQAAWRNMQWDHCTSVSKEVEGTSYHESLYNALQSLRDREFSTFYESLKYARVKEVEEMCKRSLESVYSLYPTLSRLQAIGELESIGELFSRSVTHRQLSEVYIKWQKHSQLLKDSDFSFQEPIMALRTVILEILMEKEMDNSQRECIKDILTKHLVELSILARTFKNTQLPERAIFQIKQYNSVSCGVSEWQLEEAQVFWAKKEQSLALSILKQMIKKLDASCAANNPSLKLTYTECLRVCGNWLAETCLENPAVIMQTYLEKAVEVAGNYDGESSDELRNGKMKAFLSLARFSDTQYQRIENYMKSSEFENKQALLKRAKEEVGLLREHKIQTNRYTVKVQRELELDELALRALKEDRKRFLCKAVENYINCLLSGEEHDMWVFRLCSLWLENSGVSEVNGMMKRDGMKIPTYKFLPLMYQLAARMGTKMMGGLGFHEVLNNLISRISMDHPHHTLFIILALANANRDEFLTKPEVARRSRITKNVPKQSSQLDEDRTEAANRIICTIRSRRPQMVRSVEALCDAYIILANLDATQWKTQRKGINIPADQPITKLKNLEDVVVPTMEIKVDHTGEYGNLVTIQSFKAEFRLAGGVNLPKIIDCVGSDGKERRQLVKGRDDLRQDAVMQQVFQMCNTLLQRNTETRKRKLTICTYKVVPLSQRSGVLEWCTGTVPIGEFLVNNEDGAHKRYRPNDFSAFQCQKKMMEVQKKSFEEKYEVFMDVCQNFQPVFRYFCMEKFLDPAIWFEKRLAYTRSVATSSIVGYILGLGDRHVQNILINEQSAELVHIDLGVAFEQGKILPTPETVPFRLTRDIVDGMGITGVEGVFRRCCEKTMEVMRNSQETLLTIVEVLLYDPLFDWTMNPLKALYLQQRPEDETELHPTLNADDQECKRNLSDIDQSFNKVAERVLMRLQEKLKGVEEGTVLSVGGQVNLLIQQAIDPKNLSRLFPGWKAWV
Chain of CYP 1A2 (P05177 whole entry): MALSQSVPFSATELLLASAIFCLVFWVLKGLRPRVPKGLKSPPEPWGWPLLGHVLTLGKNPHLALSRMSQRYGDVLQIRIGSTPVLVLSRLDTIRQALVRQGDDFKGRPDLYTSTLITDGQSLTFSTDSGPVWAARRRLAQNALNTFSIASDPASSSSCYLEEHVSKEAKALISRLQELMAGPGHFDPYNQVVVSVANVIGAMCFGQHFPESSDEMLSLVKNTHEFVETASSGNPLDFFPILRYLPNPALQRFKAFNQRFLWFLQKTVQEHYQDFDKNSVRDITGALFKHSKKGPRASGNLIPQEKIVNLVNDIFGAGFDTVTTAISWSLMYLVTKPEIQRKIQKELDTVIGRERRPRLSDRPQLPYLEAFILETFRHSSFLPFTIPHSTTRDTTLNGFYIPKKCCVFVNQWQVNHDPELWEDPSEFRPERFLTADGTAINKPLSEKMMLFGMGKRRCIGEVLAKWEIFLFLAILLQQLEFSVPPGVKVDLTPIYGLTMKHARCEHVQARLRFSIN
Chain of CYP 3A4 (P08684 whole entry): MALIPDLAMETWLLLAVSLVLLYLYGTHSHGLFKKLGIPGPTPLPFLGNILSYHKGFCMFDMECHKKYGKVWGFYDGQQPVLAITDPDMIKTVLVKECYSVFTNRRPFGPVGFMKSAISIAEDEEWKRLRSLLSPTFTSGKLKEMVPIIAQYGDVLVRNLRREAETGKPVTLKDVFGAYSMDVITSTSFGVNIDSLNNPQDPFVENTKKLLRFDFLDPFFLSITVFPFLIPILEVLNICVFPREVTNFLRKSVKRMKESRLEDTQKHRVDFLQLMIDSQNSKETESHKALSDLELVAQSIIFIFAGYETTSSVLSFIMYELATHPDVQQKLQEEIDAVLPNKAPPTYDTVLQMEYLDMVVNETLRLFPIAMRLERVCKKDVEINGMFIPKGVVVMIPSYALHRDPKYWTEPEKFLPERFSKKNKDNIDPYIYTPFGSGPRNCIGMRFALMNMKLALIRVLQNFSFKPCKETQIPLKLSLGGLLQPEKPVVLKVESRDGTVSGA
Chain of CYP 2C9 (P11712 whole entry): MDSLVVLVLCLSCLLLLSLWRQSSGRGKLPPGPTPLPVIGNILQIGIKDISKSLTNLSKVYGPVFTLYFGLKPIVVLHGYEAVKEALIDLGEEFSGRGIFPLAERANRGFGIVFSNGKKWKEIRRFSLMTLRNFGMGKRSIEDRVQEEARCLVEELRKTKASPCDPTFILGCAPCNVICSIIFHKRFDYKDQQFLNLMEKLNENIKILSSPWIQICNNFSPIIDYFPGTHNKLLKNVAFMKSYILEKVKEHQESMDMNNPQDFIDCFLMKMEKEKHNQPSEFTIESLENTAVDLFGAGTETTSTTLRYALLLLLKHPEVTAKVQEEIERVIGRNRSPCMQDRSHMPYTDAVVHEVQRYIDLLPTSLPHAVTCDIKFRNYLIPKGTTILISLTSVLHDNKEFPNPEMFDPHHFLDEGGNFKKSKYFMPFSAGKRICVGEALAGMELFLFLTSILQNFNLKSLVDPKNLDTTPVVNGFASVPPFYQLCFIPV
Chain of CYP 2C19 (P33261 whole entry): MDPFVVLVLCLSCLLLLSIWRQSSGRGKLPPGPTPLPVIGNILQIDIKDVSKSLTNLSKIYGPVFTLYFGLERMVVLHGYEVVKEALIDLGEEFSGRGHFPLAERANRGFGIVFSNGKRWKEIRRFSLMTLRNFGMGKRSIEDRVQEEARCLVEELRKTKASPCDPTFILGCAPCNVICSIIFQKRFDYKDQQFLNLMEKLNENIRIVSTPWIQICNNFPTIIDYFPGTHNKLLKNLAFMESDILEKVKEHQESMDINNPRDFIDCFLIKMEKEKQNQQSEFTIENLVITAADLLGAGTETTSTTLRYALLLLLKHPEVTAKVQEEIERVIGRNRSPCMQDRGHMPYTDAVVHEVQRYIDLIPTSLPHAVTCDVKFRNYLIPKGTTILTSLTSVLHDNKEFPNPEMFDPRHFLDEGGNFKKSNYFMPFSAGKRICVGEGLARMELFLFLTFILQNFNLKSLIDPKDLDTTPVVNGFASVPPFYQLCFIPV

## CS(=O)(=O)C1(c2nc(-c3cccc4[nH]ccc34)nc3c2OC[C@@H]2COCCN32)CCOCC1 [Example 3]
Eμmyc lymphoma cells; 25 mg/kg oral once daily, day 23, compared to vehicle
  tumor growth inhibition (TGI): 46%
CYP 2C19
  IC50: > 50 µM
ATR [1]
  inhibition at 10 µM: 98%
ATM
  inhibition at 10 µM: 0%
CYP 2C9
  IC50: > 50 µM
ATR [2]
  EC50: < 0.1 µM
CYP 1A2
  IC50: > 50 µM
CYP 3A4
  IC50: > 50 µM

## CC(C)(c1nc(-c2cccc3[nH]ccc23)nc2c1OCC1COCCN21)S(C)(=O)=O (stereo not shown) [Example 1]
ATR [1]
  inhibition at 10 µM: 99%
ATM
  inhibition at 10 µM: 0%
ATR [2]
  EC50: < 0.1 µM

## CNc1nc2ccccc2n1-c1nc2c(c(C(C)(C)S(C)(=O)=O)n1)OC[C@@H]1COCCN21 [Example 11]
Eμmyc lymphoma cells; 25 mg/kg oral once daily, day 33, compared to vehicle
  tumor growth inhibition (TGI): 53%
Eμmyc lymphoma cells; 50 mg/kg oral once daily, day 33, compared to vehicle
  tumor growth inhibition (TGI): 74%
CYP 2C19
  IC50: > 50 µM
CYP 2D6
  IC50: > 50 µM
CYP 2C9
  IC50: 34 µM
ATR [2]
  EC50: < 0.1 µM
CYP 1A2
  IC50: > 50 µM
CYP 3A4
  IC50: 39 µM

## O=S(=O)(Cc1nc(-c2cccc3[nH]ccc23)nc2c1OCC1COCCN21)C(F)(F)F (stereo not shown) [Example 5]
ATR [1]
  inhibition at 10 µM: 98%
ATM
  inhibition at 10 µM: 0%
ATR [2]
  EC50: 0.1 to 1 µM
